# Results: US20250011288A1 (BRISTOL-MYERS SQUIBB COMPANY, priority 2021, published 2025)
# Target: T1, human RXFP1 (Homo sapiens, UniProt Q9HBX9)
# T1 construct: expressed in transfected cells
# T1 sequence (Q9HBX9 1-757): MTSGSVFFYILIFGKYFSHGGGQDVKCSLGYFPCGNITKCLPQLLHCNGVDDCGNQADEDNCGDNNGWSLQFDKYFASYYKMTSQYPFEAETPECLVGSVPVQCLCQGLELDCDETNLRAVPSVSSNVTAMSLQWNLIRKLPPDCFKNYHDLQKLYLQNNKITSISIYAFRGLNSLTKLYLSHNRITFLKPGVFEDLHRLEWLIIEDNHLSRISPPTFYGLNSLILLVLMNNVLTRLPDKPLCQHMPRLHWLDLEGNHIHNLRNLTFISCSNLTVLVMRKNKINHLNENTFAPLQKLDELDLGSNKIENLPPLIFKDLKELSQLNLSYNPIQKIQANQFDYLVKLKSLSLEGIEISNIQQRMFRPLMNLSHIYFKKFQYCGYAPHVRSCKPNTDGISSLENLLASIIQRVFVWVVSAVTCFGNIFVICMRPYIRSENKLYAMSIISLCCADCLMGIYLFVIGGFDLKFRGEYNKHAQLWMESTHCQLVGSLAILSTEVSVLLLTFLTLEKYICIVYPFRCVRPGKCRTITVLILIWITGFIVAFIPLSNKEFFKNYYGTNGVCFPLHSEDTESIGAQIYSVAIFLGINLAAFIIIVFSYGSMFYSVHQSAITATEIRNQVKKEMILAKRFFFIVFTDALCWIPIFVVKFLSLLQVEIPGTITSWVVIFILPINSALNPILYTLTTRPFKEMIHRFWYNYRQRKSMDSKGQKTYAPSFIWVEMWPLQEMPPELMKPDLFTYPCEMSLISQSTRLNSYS
# Experiment: human RXFP1 (hRXFP1) HEK293 cAMP assay (HTRF)
# Format: cell-based
# Details: HEK293 cells stably expressing human RXFP1, 30 min at room temperature
# In short: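 Intracellular cAMP was quantified by HTRF after a 30 min room-temperature exposure of hRXFP1-HEK293 cells (1500/well) to compound at 0.010 nM–50 µM final, 2% DMSO. Buffer was HBSS with 20 mM HEPES, 0.05% BSA and 0.5 mM IBMX; values came from a 4-parameter logistic fit.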
row,SMILES,EC50 [nM]
1,"COc1ncc(C2=NOC3CC(C)(CO)CC23)cc1C(=O)N[C@H]1[C@@H](C(=O)N[C@H](C)C2(C)CC2)[C@H]2CC[C@@H]1/C2=C\C1CC1 (stereo partly drawn) [Example 177, N-[(1R,2R,3S,4R, 7Z)-7-(cyclopropyl-methylidene)-3-{[(1R)-1-(1-methylcyclo-propyl)ethyl]carbamoyl}bicyclo[2.2.1]heptan-2-yl]-5-[5-(hydroxymethyl)-5-methyl-3aH,4H,5H,6H, 6aH-cyclopenta[d][1,2]oxazol-3-yl]-2-methoxypyridine-3-carboxamide]",3.3
2,"COc1cnc(-c2cccc(C(=O)O)c2)cc1C(=O)N[C@@H]1C2CCC(/C2=C/C(F)(F)F)[C@@H]1C(=O)Nc1ccc(F)c(C(F)(F)F)c1 (stereo partly drawn) [Example 31, 3-(4-{[(2R,3S,7Z)-3-{[4-fluoro-3-(trifluoromethyl)phenyl]carbamoyl}-7-(2,2,2-trifluoroethylidene)bicyclo[2.2.1]heptan-2-yl]carbamoyl}-5-methoxypyridin-2-yl)benzoic acid]",162
3,"COc1cc2c(cc1C(=O)N[C@H]1[C@@H](C(=O)Nc3ccc(F)c(C(F)(F)F)c3)[C@H]3CC[C@@H]1/C3=C\C1CC1)CN(S(C)(=O)=O)CC2 [Example 89, N-[(1R,2R,3S,4R)-7-(cyclopropyl-methylidene)-3-{[4-fluoro-3-(trifluoromethyl)phenyl]carbamoyl}bicyclo[2.2.1]heptan-2-yl]-2-methanesulfonyl-6-methoxy-1,2,3,4-tetrahydro-isoquinoline-7-carboxamide]",230
4,"CC1Cc2cc(C3=NOC4CC(O)CC34)cc(C(=O)N[C@@H]3C4CCC(/C4=C/C4CC4)[C@@H]3C(=O)Nc3ccc(F)c(C(F)(F)F)c3)c2O1 (stereo partly drawn) [Example 155, N-[(1R,2R,3S,4R, 7Z)-7-(cyclopropyl-methylidene)-3-{[4-fluoro-3-(trifluoromethyl)phenyl]carbamoyl}bicyclo[2.2.1]heptan-2-yl]-5-{5-hydroxy-3aH,4H,5H,6H, 6H-cyclopenta[d][1,2]oxazol-3-yl}-2-methyl-2,3-dihydro-1-benzofuran-7-carboxamide]",6.8
5,COc1cc2c(cc1C(=O)N[C@@H]1C3CCC(/C3=C/C3CC3)[C@@H]1C(=O)Nc1ccc(F)c(C(F)(F)F)c1)CN(CCO)CC2 (stereo partly drawn) [Example 94],1200
6,"O=C(N[C@@H]1C2CCC(/C2=C/C(F)(F)F)[C@@H]1C(=O)Nc1ccc(F)c(C(F)(F)F)c1)c1cc(Br)cc2c1OCC2 (stereo partly drawn) [Example 58, 5-bromo-N-[(2R,3S,7Z)-3-{[4-fluoro-3-(trifluoromethyl)phenyl]carbamoyl}-7-(2,2,2-trifluoro-ethylidene)bicyclo[2. 2.1]heptan-2-yl]-2,3-dihydro-1-benzofuran-7-carboxamide]",3000
7,"COc1ncc(C2=NOC3CC(CO)CC23)cc1C(=O)N[C@H]1[C@@H](C(=O)Nc2ccc(F)c(C(F)(F)F)c2)[C@H]2CC[C@@H]1/C2=C\C1CCCC1 (stereo partly drawn) [Example 172, N-[(1R,2R,3S,4R, 7Z)-7-(cyclopentyl-methylidene)-3-{[4-fluoro-3-(trifluoromethyl)phenyl]carbamoyl}bicyclo[2.2.1]heptan-2-yl]-5-[5-(hydroxymethyl) 3aH,4H,5H,6H, 6aH-cyclopenta[d][1,2]oxazol-3-yl]-2-methoxypyridine-3-carboxamide]",4.3
8,"COc1ncc(-c2cc([C@H](OC(=O)NC3CCC3)C(F)(F)F)ccc2F)cc1C(=O)N[C@H]1[C@@H](C(=O)N[C@H](C)C2(C)CC2)[C@H]2CC[C@@H]1/C2=C\C1CC(F)(F)C1 [Example 188, (1S)-1-[3-(5-{[(1R,2R,3S,4R,7Z)-7-[(3,3-difluorocyclobutyl)methylidene]-3-{[(1R)-1-(1-methylcyclopropyl)ethyl]carbamoyl}bicyclo[2.2.1]heptan-2-yl]carbamoyl}-6-methoxypyridin-3-yl)-4-fluorophenyl]-2,2,2-trifluoroethyl N-cyclobutyl-carbamate]",0.5
9,"COc1ncc(-c2cc([C@H](OC(=O)NC3CCC3)C(F)(F)F)ccc2F)cc1C(=O)N[C@@H]1C2CCC(/C2=C/CCC(F)(F)F)[C@@H]1C(=O)Nc1ccc(F)c(C(F)(F)F)c1 (stereo partly drawn) [Example 168, (1S)-2,2,2-trifluoro-1-[4-fluoro-3-(5-{[(2R,3S,7Z)-3-{[4-fluoro-3-(trifluoromethyl)phenyl]carbamoyl}-7-(4,4,4-trifluorobutylidene)bicyclo[2.2.1]heptan-2-yl]carbamoyl}-6-methoxypyridin-3-yl)phenyl]ethyl N-cyclobutyl-carbamate]",5.3
10,"COc1ncc(C(=O)NCC2(S(C)(=O)=O)CC2)cc1C(=O)N[C@H]1C(C(=O)Nc2ccc(F)c(C(F)(F)F)c2)[C@H]2CC[C@@H]1/C2=C\C1CC1 (stereo in doubt) [Example 74, N3-((1R,2R,3R,4R,Z)-7-(cyclopropylmethylene)-3-((4-fluoro-3-(trifluoromethyl)phenyl)carbamoyl)bicyclo[2.2.1]heptan-2-yl)-2-methoxy-N5-((1-(methylsulfonyl)cyclopropyl)methyl)pyridine-3,5-dicarboxamide]",3.5
11,"COc1ncncc1C(=O)N[C@@H]1C2CCC(C2=C(C)C)[C@@H]1C(=O)Nc1ccc(F)c(C(F)(F)F)c1 (stereo partly drawn) [Example 10, N-[(2R,3S)-3-{[4-fluoro-3-(trifluoromethyl)phenyl]carbamoyl}-7-(propan-2-ylidene)bicyclo [2.2.1]heptan-2-yl]-4-methoxypyrimidine-5-carboxamide]",5000
12,"COc1ncc(C2=NOC3OCCCC23)cc1C(=O)N[C@H]1[C@@H](C(=O)Nc2ccc(F)c(C(F)(F)F)c2)[C@H]2CC[C@@H]1/C2=C\C1CCCC1 (stereo partly drawn) [Example 125, N-((1R,2R, 3S,4R,Z)-7-(cyclopentyl-methylene)-3-((4-fluoro-3-(trifluoromethyl)phenyl)carbamoyl)bicyclo[2.2.1]heptan-2-yl)-2-methoxy-5-(3a,5,6,7a-tetrahydro-4H-pyrano[3,2-d]isoxazol-3-yl)nicotinamide]",3.6
13,"COCCN1CCc2cc(OC)c(C(=O)N[C@H]3[C@@H](C(=O)Nc4ccc(F)c(C(F)(F)F)c4)[C@H]4CC[C@@H]3/C4=C\C3CC3)cc2C1 [Example 87, N-[(1R,2R,3S,4R)-7-(cyclopropyl-methylidene)-3-{[4-fluoro-3-(trifluoromethyl)phenyl]carbamoyl}bicyclo[2.2.1]heptan-2-yl]-6-methoxy-2-(2-methoxyethyl)-1,2,3,4-tetrahydro-isoquinoline-7-carboxamide]",630
14,"COc1ncc(C2=NOC3CN(CCS(C)(=O)=O)CC23)cc1C(=O)N[C@H]1[C@@H](C(=O)Nc2ccc(F)c(C(F)(F)F)c2)[C@H]2CC[C@@H]1/C2=C\C1CC1 (stereo partly drawn) [Example 178, N-[(1R,2R,3S,4R, 7Z)-7-(cyclopropyl-methylidene)-3-{[4-fluoro-3-(trifluoromethyl)phenyl]carbamoyl}bicyclo[2.2.1]heptan-2-yl]-5-[5-(2-methanesulfonylethyl)-3aH,4H,5H,6H, 6aH-pyrrolo[3,4-d][1,2]oxazol-3-yl]-2-methoxypyridine-3-carboxamide]",1.6
15,"COc1cnc(-c2cc([C@H](OC(=O)Nc3ccccc3)C(F)(F)F)ccc2F)nc1C(=O)N[C@@H]1C2CCC(/C2=C/C(F)(F)F)[C@@H]1C(=O)Nc1ccc(F)c(C(F)(F)F)c1 (stereo partly drawn) [Example 36, (1S)-2.2,2-trifluoro-1-[4-fluoro-3-(4-{[(2R,3S,7Z)-3-{[4-fluoro-3-(trifluoromethyl)phenyl]carbamoyl}-7-(2,2,2-trifluoroethylidene)bicyclo[2. 2.1]heptan-2-yl]carbamoyl}-5-methoxypyrimidin-2-yl)phenyl]ethyl N-phenylcarbamate]",63
